Values after ≈ are worked out from the molar mass of the structure shown.
What was measured:
[1] = biological target: T1, human recombinant BACE-1 (hBACE-1) (Homo sapiens, UniProt P56817); test: In vitro hBACE-1 inhibition (fluorometric method); type: biochemical; conditions: for inhibition at 15 µM: read-out: hBACE-1 % inh. @15 µM
T1 construct: purchased Invitrogen, Carlsbad, CA, USA
Method: The inhibition of human recombinant BACE-1 (hBACE-1) (Invitrogen, Carlsbad, CA, USA) by hybrids 4–7 was evaluated by a fluorometric method. The substrate (Panvera peptide, 10 μL, 250 nM final concentration) was added to a solution (10 μL) of hybrids 4–7 or buffer in control wells (20 mM sodium acetate at pH 4.5, with 0.1% w/v CHAPS). After the addition of the enzyme (10 μL, 12.91 mU), the assay solution was incubated for 1 h at 37 °C. Thereafter, STOP solution (10 μL, 2.5 M sodium acetate) was added and the fluorescence was read at […]. The DMSO concentration in the assay solution was kept <5% (v/v) to ensure no significant loss of BACE-1 activity. The background signal, determined in control wells with all the components of the assay but BACE-1, was subtracted. The fluorescence intensities in the presence of increasing concentrations or in the absence of hybrids 4–7 were compared to calculate the percent of enzyme inhibition produced by the compounds, by applying the following expression: 100 − (IFi/IFo × 100), in which IFi and IFo are the fluorescence intensities in the presence and in the absence of the compounds, respectively. Additionally, the IC50 values were calculated (GraphPad Prism 4.03 software, GraphPad Software Inc., San Diego, CA, USA) and are given as the mean ± SEM of at least two experiments, each performed in triplicate.

[2] = Plasma stability, rat plasma; type: in vitro ADME; conditions: 37 °C
physchem = conditions: PBS (99%) with DMSO (1%), 37 °C, aqueous buffer, kinetic from dmso stock, kinetic solubility
Method: The resulting solutions were incubated at 37 °C. After 2 h incubation, the samples were read using a BMG LABTECH NEPHELOstar Plus laser nephelometer (Ortenberg, Germany).

[3] = biological target: T1, human recombinant BACE-1 (hBACE-1); design: method as in PMID 24568372; conditions: cited from earlier work
[4] = Plasma stability, mouse plasma; type: in vitro ADME; conditions: 37 °C
[5] = PAMPA-BBB
Method: The parallel artificial membrane permeability assay for the blood–brain barrier (PAMPA-BBB) [41] was used to assess the in vitro brain permeability of the new compounds. For the assay, the compounds were dissolved in mixtures of PBS and ethanol (70:30).

zebrafish embryos = test: Fish embryo acute toxicity (FET) test in zebrafish embryos; type: in vivo; conditions: 72 h of exposure, lethality
Method: Test solutions were freshly prepared for each experiment and were renewed every 24 h. The maximum tested compound concentration was 100 µM and four additional concentrations were also prepared by applying a 1:2 dilution factor. A 1% DMSO solution was used as a vehicle control.
Six-well plates were incubated at 26 ± 1 °C under a 14:10 light:dark cycle for 72 h. To assess the potential lethality of the new compounds, we followed, every 24 h, the four parameters that are outlined in the OECD Guideline No. 236: embryo coagulation, lack of somite formation, non-detachment of the tail, and absence of a heartbeat (from 48 h onward). The percentage of lethality at each concentration that was tested for the new compounds was recorded and expressed as mean ± SEM from three or more independent experiments. […] LOAEC values were determined through an ANOVA test with Bonferroni’s post-hoc test for multiple comparisons (significance threshold: p < 0.05).

[6] = compound at 15 µM (parenthesized values)
[7] = Solubility class, classification after ref 70
[8] = Solubility, 2 h, DMSO (1%)/PBS (99%)
[9] = Solubility, 2 h, PBS with 1% DMSO, nephelometry

T1 sequence (P56817 46-501): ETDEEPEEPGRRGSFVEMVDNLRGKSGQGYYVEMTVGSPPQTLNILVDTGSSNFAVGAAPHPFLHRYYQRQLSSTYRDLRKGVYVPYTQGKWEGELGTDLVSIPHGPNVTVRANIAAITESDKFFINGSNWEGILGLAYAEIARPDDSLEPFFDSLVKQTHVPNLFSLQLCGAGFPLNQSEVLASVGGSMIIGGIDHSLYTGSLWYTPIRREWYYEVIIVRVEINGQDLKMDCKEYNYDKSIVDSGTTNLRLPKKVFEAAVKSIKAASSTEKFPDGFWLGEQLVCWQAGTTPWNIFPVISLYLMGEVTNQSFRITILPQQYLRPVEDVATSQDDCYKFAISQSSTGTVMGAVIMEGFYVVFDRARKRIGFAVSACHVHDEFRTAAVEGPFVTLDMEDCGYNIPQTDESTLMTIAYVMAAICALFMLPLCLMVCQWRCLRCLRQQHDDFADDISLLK

Row | Compound | IC50 [1] [µM] | hBACE-1 % inh. @15 µM ([1]; compound at 15 µM (parenthesized values), 15 µM) | inhibition at 15 µM [1, 6] [%] | % hydrolyzed in rat plasma after 6 h [2] [%] | solubility at 2 h (physchem; [7]) [µg/mL] | solubility at 2 h (physchem; [8]) [µg/mL] | solubility at 2 h (physchem; [9]) [µM] | Solubility (kinetic solubility, 37 °C, 2 h, PBS with 1% DMSO, nephelometry) [µM] | increased aqueous solubility relative to the initial lead (relative to lead 3) [fold] | BACE-1 inhibition (in words) [3] | % hydrolyzed in mouse plasma after 6 h [4] [%] | BBB permeation class ([5]; CNS+ threshold Pe over 5.21 × 10^−6 cm/s) | Brain Permeability Pe ([5]; mean ± SD) | LOAEC (zebrafish embryos) [µM]
1 | CC(=O)c1cccc(C(=O)NCCCCCCCCCNc2c3c(nc4cc(Cl)ccc24)CC2C=C(C)CC3C2)c1 (stereo not drawn) [Compound 7, 3-Acetyl-N-{9-[(3-chloro-6,7,10,11-tetrahydro-9-methyl-7,11-methanocycloocta[b]quinolin-12-yl)amino]nonyl}benzamide] | ≤ 15 | (48.1 ± 0.3) % | 48 | 14.2 | 10 to 100 | 11 | 18 | 18.1 (≈ 10.4 µg/mL) | 2 |  |  |  |  | 
2 | CC1=CC2Cc3nc4cc(Cl)ccc4c(NCCCCCCCCCNC(=O)c4cc(O)c5c(c4)C(=O)c4cccc(O)c4C5=O)c3C(C1)C2 (stereo not drawn) [Compound 3] | 1.5 ± 0.38 |  |  | 32.1 | < 10 | 6.3 | 8.6 |  |  | found to inhibit BACE-1 | 7.1 | CNS+ (high BBB permeation (CNS+), with Pe (10^−6 cm/s) > 5.21) | 21.5 ± 0.7 10^−6 cm s^−1 | 100
3 | CC1=CC2Cc3nc4cc(Cl)ccc4c(NCCCCCCCCCNC(=O)c4ccc5c(c4)C(=O)c4ccccc4-5)c3C(C1)C2 (stereo not drawn) [Compound 5, N-{9-[(3-Chloro-6,7,10,11-tetrahydro-9-methyl-7,11-methanocycloocta[b]quinolin-12-yl)amino]nonyl}-9-fluorenone-2-carboxamide] | 5.63 ± 0.01 |  |  |  | < 10 | 5.4 | 8.1 |  |  |  |  |  |  | 
4 | CC1=CC2Cc3nc4cc(Cl)ccc4c(NCCCCCCCCCNC(=O)c4ccc5c(c4)C(=O)c4ccccc4C5=O)c3C(C1)C2 (stereo not drawn) [Compound 4, N-{9-[(3-Chloro-6,7,10,11-tetrahydro-9-methyl-7,11-methanocycloocta[b]quinolin-12-yl)amino]nonyl}anthraquinone-2-carboxamide] | 2.89 ± 0.5 |  |  |  | < 10 | 5.9 | 8.4 |  |  |  |  |  |  | 
5 | CC1=CC2Cc3nc4cc(Cl)ccc4c(NCCCCCCCCCNC(=O)c4cccc(C(=O)c5ccccc5)c4)c3C(C1)C2 (stereo not drawn) [Compound 6, 3-Benzoyl-N-{9-[(3-chloro-6,7,10,11-tetrahydro-9-methyl-7,11-methanocycloocta[b]quinolin-12-yl)amino]nonyl}benzamide] | ≤ 15 |  | 61.5 |  | < 10 | 8.4 | 12.5 |  |  |  |  |  |  | 50

Source: publication PMC11359831, “Stepwise Structural Simplification of the Dihydroxyanthraquinone Moiety of a Multitarget Rhein-Based Anti-Alzheimer Lead to Improve Drug Metabolism and Pharmacokinetic Properties” (Pharmaceutics, 2024)
